For the compound `CS(=O)(=O)OCCc1ccc(OCc2ccccc2)cc1`, the melting point was in the range of 48 to 50 °C.

On to `ClCCCCc1nnnn1C1CCCCC1`, for which the melting point was 50 to 51 °C.

`CON=C(C(C)=O)C(=O)OC` came in with a melting point of 64.4 °C.

In turn, `COC(=O)C1=C(C)NC(C)=C(C(=O)OC)C1c1ccc(OC)c(OC)c1` came in with a melting point of 154 to 155 °C.

The compound `COc1cc(C=C2CCN(C(=O)NO)C2=O)cc(OC)c1O` returned a melting point of 203 to 204 °C.

The compound `Cc1cc(C)n(-c2ccc(C#N)nn2)n1` showed a melting point of 187 to 189 °C.

Regarding `CN(C)Cc1ccc(CNCCN2CCNC2=C(C#N)C#N)o1`, the melting point lay in the range of 159 to 160 °C.

In turn, `COc1cc(-c2nc3cc(F)ccc3s2)ccc1OC(=O)N1CCOCC1` gave a melting point of 126 °C.

`CCc1nc2cnc3ccccc3c2n1CCCCN` returned a melting point of 84.8 to 88.7 °C.

In turn, `O=c1nc(N2CCN(c3ccccc3F)CC2)sc2c([N+](=O)[O-])cc(C(F)(F)F)cc12` came in with a melting point of 164 to 168 °C.

For `COc1ccc(C(=O)Nc2ccc3ccc(OC4CCN(C)CC4)nc3n2)cc1`, the melting point stood at 200 °C.

In turn, `C=C1CCC2C3CC(=O)C4=CC(=O)CCC4(C)C3CCC12C` (stereo not drawn) displayed a melting point of 113 to 115 °C.

`COC(C)c1cc([N+](=O)[O-])ccc1C` (stereo not drawn) came in with a melting point of 35 to 37 °C.

For the compound `O=C1C(Cl)=C(C2CCC(c3ccc(Cl)cc3)CC2)C(=O)c2ccccc21` (stereo not drawn), the melting point was in the range of 172 to 175 °C.

`COC(=O)[C@H](Cc1ccc(OCc2ccccc2)cc1)NC(=O)C(CSC(C)=O)Cc1ccccc1` (stereo partly drawn) displayed a melting point of 92 to 93 °C.

In turn, `CNc1cnc(N(Cc2ccccc2)C(=O)OCc2ccccc2)cc1-c1ccccc1C` displayed a melting point of 110 to 112 °C.

`Cc1cccc(-c2nc(CCOc3ccc(/C=C/C=O)cc3)c(C)o2)c1` displayed a melting point of 110 to 111 °C.

`Clc1ccccc1N1CCN=C1C(Cn1ccnc1)c1ccccc1` (stereo not drawn) had a melting point of 118 to 122 °C.

`CCOc1ccc2nc(N3CCN(c4nc(N)c5cc(OC)c(OC)cc5n4)CC3)nc-2cc1` came in with a melting point of over 250 °C.

The compound `CCOC(=O)C=CNc1oc2ccc(CC)cc2c(=O)c1C=O` gave a melting point of 201 to 203 °C.

Consider `CC(C)(C)C1CCCC=C1c1ccc(C(=O)O)cc1` (stereo not drawn), for which the melting point was determined as 197 °C.

The compound `Cc1nccn1-c1cccc(OS(N)(=O)=O)c1` yielded a melting point of 197 to 200 °C.

`CCOC(=O)c1c(N)cc(C(F)(F)F)nc1C(F)(F)F` yielded a melting point of 43 to 45 °C.

`OC1CCc2c(-c3cccs3)cccc21` (stereo not drawn) gave a melting point of 101 to 104 °C.

Compound `O=C(OCCN1CCN(CCN2CCOCC2)CC1)c1ccc(O)cc1` came in with a melting point of 176 to 178 °C.

With `c1ccc(Sc2c[nH]c3ncccc23)cc1`, the melting point fell in the range of 188 to 189 °C.

For `CCO/C=C1\SC(=S)N(C)C1=O`, the melting point lay within 110 to 111 °C.

For the compound `COc1cc2c3ccc(OC)c(OC)c3n(S(=O)(=O)c3ccccc3)c2cc1OC`, the melting point was 205 to 206 °C.

For `Cc1cc(CCCCCOc2ccc(-c3nnco3)cc2)on1`, the melting point is 84 to 86 °C.

For `O=C(O)[C@H](CC1CC1)N1C(=O)NC(C(F)(F)F)(C(F)(F)F)C1=O`, the melting point fell in the range of 123 to 125 °C.

As for `CCOCC(O)COc1ccc(NC(=O)CCSC)cc1` (stereo not drawn), the melting point fell in the range of 79 to 81 °C.

The compound `C=C/C=C/CCOC(=O)c1cc(CBr)cc(CBr)c1` showed a melting point of 50 to 52 °C.

For the compound `CCN(CC)CCOc1ccc(C(O)(CC)c2ccccc2)cc1` (stereo not drawn), the melting point is 113 °C.

`O=C(O)c1cc2cc(F)c(C(F)(F)F)cc2[nH]1` displayed a melting point of 178 to 180 °C.

In the case of `C#CCn1c2ccc(Br)cc2c2cc(Br)ccc21`, the melting point lay within 193 to 194 °C.

With `COc1cc(Br)c(OC(=O)c2ccc(OC)c(F)c2)c(NC(=O)c2ccc(OC)c(F)c2)c1`, the melting point lay in the range of 184 to 186 °C.

The compound `NC(=O)N(O)Cc1sccc1Sc1ccc(Cl)cc1` registered a melting point of 111 to 113 °C.

`COc1cc(CC#N)nc(N)n1` returned a melting point of 95 to 98 °C.

In turn, `Cc1nnnn1CCCC(=O)O` came in with a melting point of 71 to 72.5 °C.

`Cc1cc(CCCCCOc2ccc(C3OC=CO3)cc2)on1` gave a melting point of 38 to 39 °C.

The compound `CCC(CC)O[C@@H]1C=C(C(=O)O)C[C@H](CC(O)CO)[C@H]1NC(C)=O` (stereo partly drawn) gave a melting point of 189 to 190 °C.

`Cc1cc(-c2cnc(N)c(C(=O)Nc3cccnc3)n2)ccc1F` came in with a melting point of 186 to 189 °C.

On to `O=C1NC(=O)C2(c3ccc4ccc(O)nc4n3)C=CC=CC12` (stereo not drawn), for which the melting point was 370 °C.

In the case of `Cc1cc(NC(=O)c2cnn(-c3ccc(Cl)cc3)c2C)ccc1N1CCC(N2CCOCC2)CC1`, the melting point fell in the range of 235 to 245 °C.

`CS(=O)(=O)Nc1ccc2ccccc2c1-c1c(P(c2ccccc2)c2ccccc2)ccc2ccccc12` came in with a melting point of 109 °C.

For `O=C(C(=Cc1cc(O)c(O)c([N+](=O)[O-])c1)C(=O)C1CC1)C1CC1`, the melting point is 159 to 162 °C.

With `CCCCC(Cc1ccc(OCCNC(=O)c2ccc(O)nc2)cc1)C(=O)O` (stereo not drawn), the melting point lay in the range of 69 to 71 °C.

Take `NC(=O)c1c(F)cccc1C(=O)O`: the melting point lay in the range of 129 to 132 °C.

On to `COc1cc(CC(C#N)(C=O)C(OC)OC)cc(OC)c1OC` (stereo not drawn), for which the melting point fell in the range of 118 to 122 °C.

Consider `CN(C)CCc1c[nH]c2ccc(CC3COC(=O)N3)cc12` (stereo not drawn), for which the melting point fell in the range of 138 to 140 °C.

`CCC1(C)C(=O)N(C(C)C)CC(C)(C)N1OC(C)(C)C#N` (stereo not drawn): the melting point was in the range of 106 to 108 °C.

`O=C(O)CCc1ccc(OCc2ccccc2)cc1OCc1ccccc1` showed a melting point of 125 to 127 °C.

For the compound `COc1ccc(NC(=O)c2sccc2S(=O)(=O)Nc2onc(C)c2Br)cc1`, the melting point lay within 202 to 205 °C.

Turning to `COc1ccc(C(=O)Nc2c(Cl)cncc2Cl)c2c1[nH]c1ccc(Cl)cc12`, the melting point is over 359 °C.

The compound `O=C(O)Cc1ccc(Sc2ccc(O)cc2)cc1` returned a melting point of 163 to 165 °C.

Consider `Cc1cc(C)c(Nc2nc(C)ccc2S(=O)(=O)c2ccc(OCc3cccc(C#N)c3)cc2)c(C)c1`, for which the melting point is 155 to 158 °C.

The compound `COc1cc(OCC(=O)O)c(C)cc1SCc1ccc(-c2ccc(Cl)c(Cl)c2)cc1` showed a melting point of 161 to 162 °C.

In the case of `CCOC(=O)CN[C@@H](c1ccccc1)[C@H](O)c1ccccc1`, the melting point was in the range of 126 to 127 °C.

Consider `COc1ccc(CNc2nc[nH]n2)cc1OC1CCCC1`, for which the melting point fell in the range of 203 to 204 °C.

In turn, `NS(=O)(=O)c1cc(Cl)c(Cl)c(Cl)c1` registered a melting point of 190 to 191 °C.

With `N#CNC(=N)CCN1CCOC1=O`, the melting point fell in the range of 137 to 139 °C.

As for `O=c1oc2c(Br)cc(Br)cc2s1`, the melting point was 104 to 106 °C.

With `COC(Cc1ccc(OCCc2nc(C(C)(C)C)oc2C)c2ccsc12)C(=O)O` (stereo not drawn), the melting point fell in the range of 163 to 165 °C.

`CC(C(=O)OC1(C)CCCCC1)c1ccc2nc(N)sc2c1` (stereo not drawn) displayed a melting point of 165 to 167 °C.

Compound `CCCCCCCCCCCCCC1CC(=O)NCCCNCCCCN1` (stereo not drawn) yielded a melting point of 72 to 73 °C.

`CON(C)C(=O)c1c(-c2ccc(Cl)cc2)nsc1-c1ccccc1` had a melting point of 119 to 120 °C.

On to `Cc1onc(OC2CN3CCC2CC3)c1Cl` (stereo not drawn), for which the melting point was 37 to 38 °C.

On to `COc1ccc(-c2nc3cc4c(cc3[nH]2)NC(=O)C4C(C)C)cc1` (stereo not drawn), for which the melting point fell in the range of 326 to 328 °C.

For the compound `Nc1nc2ccccc2c2c1nc1n2CCOC1`, the melting point lay within 258 to 259 °C.

Regarding `Cc1cc(C(=O)NC(C#N)c2ccccc2)n(C)n1` (stereo not drawn), the melting point was in the range of 135 to 136 °C.

`CC1CC(=O)Nc2nc(Br)c3ncccc3c21` (stereo not drawn) returned a melting point of 251 to 252 °C.

With `Oc1cccc(N2CCCC2)n1`, the melting point was in the range of 154 to 158 °C.

`CCOC(=O)C1CCN(c2nnc(NCc3ccc4c(c3)OCO4)c3ccncc23)CC1`: the melting point is 135 to 136 °C.

Consider `O=c1c2c(n(-c3ccccc3)c3ncccc13)CCC(O)C2` (stereo not drawn), for which the melting point was 283 to 286 °C.

Regarding `CC1(C)Oc2ccc(Br)cc2C(n2ccccc2=O)=C1CN(O)C(N)=O`, the melting point is 216 °C.

Turning to `CC=CCNc1cc(C(=O)O)cc(S(N)(=O)=O)c1Oc1ccc(NC(C)=O)cc1`, the melting point was 255 to 257 °C.

As to `CC1(C)CCCC2(C)C3CC=C(C=O)CC(=O)C3CCC12` (stereo not drawn), the melting point lay within 87 to 88 °C.

`Cc1ccc(-c2ncc(N3CCC(O)CC3)nc2-c2ccc(C)cc2)cc1` displayed a melting point of 176 to 178 °C.

`CCOC(=O)Nc1cc(N(C)C)nc2nc(=O)on12` displayed a melting point of 230 to 240 °C.

In turn, `CCCc1ccc(-c2ccn([C@H](CC(=O)OCc3ccccc3)C(=O)N[C@H](C(=O)NC)C(C)(C)C)c2)cc1` displayed a melting point of 63 to 65 °C.

Consider `CCn1cnc2c(Nc3cccc(C(F)(F)F)c3)nc(Cl)nc21`, for which the melting point is 129 to 130 °C.

Consider `CCCCCOc1c(OC)ccc(C(=O)NCCc2ccc(OCc3ccccc3)cc2)c1CCO`, for which the melting point lay in the range of 93.4 to 93.7 °C.

Compound `CC(C)(C)C(=O)OCOC(=O)COc1ccc(Cc2ccc(Cl)cc2)cc1` came in with a melting point of 54 to 55 °C.

For the compound `O=C(c1ccccc1)c1ccc(-c2nc(CCl)co2)cc1`, the melting point lay in the range of 138 to 139 °C.

Take `CC(C)(C)C(=O)c1c[nH]c2ncc(-c3cccc(NS(=O)(=O)c4ccc(N)cc4)c3)nc12`: the melting point is 264 to 266 °C.

As to `CN(C)CCNC(=O)NCc1ccc2c(c1)-c1[nH]nc(-c3ccsc3)c1C2`, the melting point was 247 to 249 °C.

In turn, `Cn1cnnc1C(N)(c1ccc(C#N)cc1)c1ccc2c(c1)c(-c1cccc(Cl)c1)nc1nnnn12` (stereo not drawn) came in with a melting point of 194 °C.

Consider `CCn1c2ccc(C(=O)CC(C)=O)cc2c2cc(C(=O)c3ccccc3C)ccc21`, for which the melting point worked out at 148 °C.

The melting point is the temperature, or range, at which the solid turns liquid.
